Patent US11638713B2, “Patentiflorin A analogs as antiviral agents” (priority 2019, dated 2023)
pEC50, pIC50: −log10 of the molar value. Like-named read-outs stand apart in the source and are kept apart here.

What was measured:
A549 cells [1] = tested on: A549 cells
HIV = experiment: microbe, parasite or virus in culture; format: cell-based
[2] = tested on: broad HIV clinical strains; details: background; read-out: EC50 against broad HIV clinical strains; cited from earlier work
H5N1 virus = experiment: microbe, parasite or virus in culture; format: cell-based, H5N1 influenza virus
EBOV (Ebola virus) = experiment: microbe, parasite or virus in culture; format: cell-based; details: Zaire ebolavirus
[3] = tested on: VSV (vesicular stomatitis virus); experiment: microbe, parasite or virus in culture; format: cell-based
A549 cells [4] = experiment: cells; details: Homo sapiens, A549, read-out: % Inhibition against A549 cells
89.6 = experiment: HIV-1 clinical strain PBMC assay (p24 ELISA), 89.6; format: cell-based; details: Human immunodeficiency virus 1, PBMC, read-out: IC50 against 89.6
Bal = experiment: HIV-1 clinical strain PBMC assay (p24 ELISA), Bal; format: cell-based; details: Human immunodeficiency virus 1, BAL, read-out: IC50 against Bal
1617-1 = experiment: HIV-1 resistant strain PBMC assay (p24 ELISA), 1617-1 (AZT resistant); format: cell-based; details: Human immunodeficiency virus 1, PBMC, read-out: IC50 against 1617-1
SF162 = experiment: HIV-1 clinical strain PBMC assay (p24 ELISA), SF162; format: cell-based; details: Human immunodeficiency virus 1, PBMC, read-out: IC50 against SF162
[5] = Cytotoxicity against PBMC; format: cell-based; details: human
in vitro = details: human, CC50 (nM)
Lav.04 = experiment: HIV-1 clinical strain PBMC assay (p24 ELISA), Lav.04; format: cell-based; details: Human immunodeficiency virus 1, PBMC, read-out: IC50 against Lav.04
N119 = experiment: HIV-1 resistant strain PBMC assay (p24 ELISA), N119 (nevaripine resistant); format: cell-based; details: Human immunodeficiency virus 1, PBMC, read-out: IC50 against N119
[6] = Repeated-dose toxicity study in mice; details: 25 and 50 mg/kg, daily i.p. for 28 days
[7] = Human immunodeficiency virus 1, A549

Compound: 2″-Acetyl-7-O-β-D-patentiflorin A [Compound 27bc]
- CC50 (A549 cells [1]): 1370 nM
- pEC50 (HIV; read-out: EC50): 9.03

Compound: Cc1cn([C@H]2C[C@H](N=[N+]=[N-])[C@@H](CO)O2)c(=O)[nH]c1=O [AZT, zidovudine, reference compound]
- pEC50 [2]: 7.02 to 7.11
- % Inhibition against H5N1 virus (H5N1 virus; 20 ng/mL): 92.7%
- inhibition at 0.02 µg/mL (H5N1 virus; Influenza A virus, H5N1, A549, 20 ng/mL, read-out: % Inhibition against H5N1 virus): 96.5%
- pEC50 (H5N1 virus; Influenza A virus, H5N1, A549, read-out: EC50 against H5N1 virus): 8.46
- pEC50 (EBOV (Ebola virus); A549, read-out: EC50 against EBOV): 8.42
- inhibition at 0.02 µg/mL (EBOV (Ebola virus); A549, 20 ng/mL, read-out: % Inhibition against EBOV): 93.6%
- inhibition at 0.02 µg/mL ([3]; A549, 20 ng/mL, read-out: % Inhibition against VSV): 99.4%
- pEC50 ([3]; A549, read-out: EC50 against VSV): 8.15
- inhibition at 0.02 µg/mL (A549 cells [4]): 1.1%
- pEC50 (HIV; [7]): 8.59

Compound: CCOC(=O)COc1c2c(c(-c3ccc4c(c3)OCO4)c3cc(OC)c(OC)cc13)C(=O)OC2 [Compound 12b]
- pIC50 (89.6): 6.42
- pIC50 (Bal): 6.34
- pIC50 (1617-1): 6.27
- pIC50 (SF162): 6.47
- CC50 [5]: > 100000 nM
- CC50 (in vitro): > 26800 nM
- pIC50 (Lav.04): 6.51
- pIC50 (N119): 6.20
- pEC50 (HIV; [7]): 6.68

Compound: COc1cc2c(OCC#N)c3c(c(-c4ccc5c(c4)OCO5)c2cc1OC)C(=O)OC3 [Compound 17a]
- pIC50 (89.6): 6.87
- pIC50 (Bal): 6.77
- pIC50 (1617-1): 6.76
- pIC50 (SF162): 6.91
- CC50 [5]: > 100000 nM
- CC50 (in vitro): 45200 nM
- excised organs at the end of the experiment [6]: appeared as normal
- toxic symptoms (weight loss, skin damage, food and water intake impairment and postual abnormality) and mortality [6]: no toxic symptoms
- pIC50 (Lav.04): 6.82
- pIC50 (N119): 6.69
- anti-HIV activity in terms of SI values (HIV): much more improved anti-HIV activity
- pEC50 (HIV; [7]): 7.14

Compound: COc1cc2c(B3OC(C)(C)C(C)(C)O3)c3c(c(-c4ccc5c(c4)OCO5)c2cc1OC)C(=O)OC3 [Compound 19a]
- pIC50 (89.6): 6.84
- pIC50 (Bal): 6.73
- pIC50 (1617-1): 6.82
- pIC50 (SF162): 6.81
- CC50 [5]: > 100000 nM
- CC50 (in vitro): 10500 nM
- pIC50 (Lav.04): 6.86
- pIC50 (N119): 6.73
- anti-HIV activity in terms of SI values (HIV): much more improved anti-HIV activity
- pEC50 (HIV; [7]): 7.11

Compound: C#Cc1c2c(c(-c3ccc4c(c3)OCO4)c3cc(OC)c(OC)cc13)C(=O)OC2 [Compound 21]
- pIC50 (89.6): 7.54
- pIC50 (Bal): 7.58
- pIC50 (1617-1): 7.41
- pIC50 (SF162): 7.62
- CC50 [5]: 25600 nM
- CC50 (in vitro): 207 nM
- pIC50 (Lav.04): 7.52
- pIC50 (N119): 7.38
- pEC50 (HIV; [7]): 7.75

Compound: COc1cc2c(OC3OC[C@@H](OC(C)=O)[C@H](OC(C)=O)[C@H]3OC(C)=O)c3c(c(-c4ccc5c(c4)OCO5)c2cc1OC)C(=O)OC3 (stereo partly drawn) [Compound 25a, Peracetylated 7β-D-xylosyloxydiphyllin]
- CC50 (in vitro): 3080 nM
- excised organs at the end of the experiment [6]: appeared as normal
- toxic symptoms (weight loss, skin damage, food and water intake impairment and postual abnormality) and mortality [6]: no toxic symptoms
- anti-HIV activity in terms of SI values (HIV): much more improved anti-HIV activity
- pEC50 (HIV; [7]): 8.15
